Results taken from EP4682146A1, “COMPOSITION INCLUDING NOVEL PYRIDOINDOLE DERIVATIVE COMPOUND AS ACTIVE INGREDIENT FOR PREVENTION OR TREATMENT OF NEURODEGENERATIVE DISEASES” (Neurotarge Co., Ltd., priority 2023, dated 2024).

The compounds below were run against T1, Tau-Synaptogyrin3 interaction (Homo sapiens, UniProt O43761+P10636) (assay: Cell-based split luciferase (NanoBit) protein complementary assay for Tau-Synaptogyrin3 interaction in stable cell line HEK293T-TK252-1E2). Conditions: HEK293T-TK252-1E2 cells, 48 hrs compound treatment, L/F value (luciferase activity/fluorescent intensity) compared to DMSO control.
T1 construct: expressed in transfected cells
T1 sequence (P10636 1-441 isoform P10636-8): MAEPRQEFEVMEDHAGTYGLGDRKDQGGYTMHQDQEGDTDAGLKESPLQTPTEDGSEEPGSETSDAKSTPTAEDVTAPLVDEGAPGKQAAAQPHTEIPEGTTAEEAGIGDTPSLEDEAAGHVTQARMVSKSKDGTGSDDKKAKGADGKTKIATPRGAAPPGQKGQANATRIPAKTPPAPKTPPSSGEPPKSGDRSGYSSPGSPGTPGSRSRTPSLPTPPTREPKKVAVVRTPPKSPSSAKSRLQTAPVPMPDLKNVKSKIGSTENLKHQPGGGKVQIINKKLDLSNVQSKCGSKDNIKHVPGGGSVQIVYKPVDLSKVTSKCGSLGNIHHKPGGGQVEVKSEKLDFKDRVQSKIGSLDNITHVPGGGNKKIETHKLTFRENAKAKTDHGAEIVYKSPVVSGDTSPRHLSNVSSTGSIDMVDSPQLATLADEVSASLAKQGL
T1 sequence (O43761 whole entry): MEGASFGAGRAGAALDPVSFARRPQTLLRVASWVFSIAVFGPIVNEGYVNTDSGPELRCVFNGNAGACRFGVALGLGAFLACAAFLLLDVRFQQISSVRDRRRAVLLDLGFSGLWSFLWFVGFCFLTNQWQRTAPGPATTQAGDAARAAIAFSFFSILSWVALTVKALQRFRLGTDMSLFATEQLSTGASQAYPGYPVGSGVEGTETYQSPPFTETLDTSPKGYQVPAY
Method: Live cell luciferase assay: Live cell luciferase activity was measured using NanoGlo® Live Cell Assay System (Cat# N2012. Promega, WI, USA), according to manufacturer's instruction. All microplate-based measurement was performed with BioTek Synergy H1 (Agilent. CA, USA).
For producing HEK293T-TK252 stable cell line for screening, BglII-linearized pTK252 was transfected to HEK293T cells. After 24 hrs transfection, the transfected cells were cultured in the culture media containing 1 µg/ml puromycin (10 mM in DMSO, Cat# J61278/ Alfa Aesar. ThermoFisher Korea, Seoul, Korea) for 9 days. Regular media change was performed in every 3 days with fresh puromycin of indicating concentration during the whole selection period. The selected cells were trypsinized and diluted to 5 cells/ml and seeded to 4x 96 well cell culture plates (100 µl/well), and cultured with the cell culture media containing 1 µg/ml puromycin for 11 days. 18 wells that contained only GFP-positive cells were selected for expansion, and cultured with the cell culture media containing 0.1-0.2 µg/ml puromycin for 14 days. 10 clones were discarded during the expansion due to emerging of non-GFP cells, and 8 clones were validated. The selected clone (1E2) was cultured with the cell culture media containing 0.5 µg/ml puromycin for further experiments.
3 µmol of 1,728 compounds were purchased from Otava Chemicals MB (Vilniaus, Lithuania), dissolved into 300 µl DMSO (10 mM) and stored at -80°C. 4x10^4 HEK293T-TK252-1E2 cells were seeded with 100 µl of the cell culture media into 96 white well cell culture plates (Cat# 30196. SPL, Seoul, Korea), 48 hrs prior to compound treatment. For 10 µM compound treatment, 10 mM compound stock was diluted to 50 µM with the cell culture media, and 25 µl of the diluted compound was added to the designated wells of the 96 well plates. For dose-response experiments, the amount of compounds for dilution was adjusted to fit the volume indicated above. After 48 hrs compound treatment, the cells were washed once with OptiMEM and live cell luciferase activity, fluorescent intensity and fluorescence area scan was measured.
1,728 compounds were treated at 10 µM to HEK293T-TK252-1E2 cells and incubated for 48 hrs. […] Single wash step with culture media without FBS was included before measurement to discard dead cells and to remove FBS that affects luciferase assay. […] Fluorescent intensity was taken for normalization, which is expected to be proportion to the cell number at the measuring point. L/F value which is luciferase activity normalized with fluorescent intensity (L/F = Luciferase activity/ Fluorescent intensity) was calculated for all measurements and compared to L/F value of DMSO controls to calculated the size of inhibitory effect. […] Fluorescence area scan (FA) performed right after luciferase activity and fluorescent intensity measurement, to validate total remaining fluorescent cells in a well as a proxy to the cellular toxicity. FA value was in proportion to WST assay results (data not shown), and average CV of triplicates of all measurements was 0.04.
61 compounds were further tested for dose-response profile, based on inhibitory effect that was measured by L/F value (<60%) and FA-based cell viability (>90%) at 10 µM compared to DMSO control. 10 compounds were considered as hit compounds through three times of reproduction.

| SMILES | IC50 [µM] |
| --- | --- |
| O=C(c1ccncc1)N1CCc2[nH]c3ccc(-c4ccccc4)cc3c2C1 [Formula 3] | 3 to 12 |
| Cc1cncc(C(=O)N2CCc3[nH]c4ccc(-c5ccccc5)cc4c3C2)c1 [Formula 4, (5-methylpyridin-3-yl)(8-phenyl-1,3,4,5-tetrahydro-2H-pyrido[4,3-b]indol-2-yl)methanone] | 3 to 12 |
| Cc1ccc(C(=O)N2CCc3[nH]c4ccc(-c5ccccc5)cc4c3C2)cn1 [Formula 5, (6-methylpyridin-3-yl)(8-phenyl-1,3,4,5-tetrahydro-2H-pyrido[4,3-b]indol-2-yl)methanone] | 3 to 12 |
| O=C(c1cnccn1)N1CCc2[nH]c3ccc(-c4ccccc4)cc3c2C1 [Formula 7, (8-phenyl-1,3,4,5-tetrahydro-2H-pyrido[4,3-b]indol-2-yl)(pyrazin-2-yl)methanone] | 3 to 12 |
| O=C(c1ccccc1)N1CCc2[nH]c3ccc(-c4ccccc4)cc3c2C1 [Formula 9, Phenyl(8-phenyl-1,3,4,5-tetrahydro-2H-pyrido[4,3-b]indol-2-yl)methanone] | 3 to 12 |
| Cn1ccc2c(C(=O)N3CCc4[nH]c5ccc(-c6ccccc6)cc5c4C3)cccc21 [Formula 10, (1-methyl-1H-indol-4-yl)(8-phenyl-1,3,4,5-tetrahydro-2H-pyrido[4,3-b]indol-2-yl)methanone] | 3 to 12 |
| O=C(c1cccc(Cl)c1)N1CCc2[nH]c3ccc(-c4ccccc4)cc3c2C1 [Formula 13, (3-chlorophenyl)(8-phenyl-1,3,4,5-tetrahydro-2H-pyrido[4,3-b]indol-2-yl)methanone] | 12 to 25 |
| Cc1ccc(C(=O)N2CCc3[nH]c4ccc(-c5ccccc5)cc4c3C2)cc1 [Formula 14, (8-phenyl-1,3,4,5-tetrahydro-2H-pyrido[4,3-b]indol-2-yl)(p-tolyl)methanone] | < 3 |
| Cc1cccc(C(=O)N2CCc3[nH]c4ccc(-c5ccccc5)cc4c3C2)c1 [Formula 15, (8-phenyl-1,3,4,5-tetrahydro-2H-pyrido[4,3-b]indol-2-yl)(m-tolyl)methanone] | 3 to 12 |
| COc1ccc(C(=O)N2CCc3[nH]c4ccc(-c5ccccc5)cc4c3C2)cc1 [Formula 17, (4-methoxyphenyl)(8-phenyl-1,3,4,5-tetrahydro-2H-pyrido[4,3-b]indol-2-yl)methanone] | 3 to 12 |
| O=C(N1CCOCC1)N1CCc2[nH]c3ccc(-c4ccccc4)cc3c2C1 [Formula 19, Morpholino(8-phenyl-1,3,4,5-tetrahydro-2H-pyrido[4,3-b]indol-2-yl)methanone] | 3 to 12 |
| Cc1ccccc1-c1ccc2[nH]c3c(c2c1)CN(C(=O)c1ccncc1)CC3 [Formula 21, Pyridin-4-yl(8-(o-tolyl)-1,3,4,5-tetrahydro-2H-pyrido[4,3-b]indol-2-yl)methanone] | 3 to 12 |
| Cc1cncc(C(=O)N2CCc3[nH]c4ccc(-c5ccccc5C)cc4c3C2)c1 [Formula 22, (5-methylpyridin-3-yl)(8-(o-tolyl)-1,3,4,5-tetrahydro-2H-pyrido[4,3-b]indol-2-yl)methanone] | 3 to 12 |
| Cc1ccccc1-c1ccc2[nH]c3c(c2c1)CN(C(=O)c1ccccc1)CC3 [Formula 23, Phenyl(8-(o-tolyl)-1,3,4,5-tetrahydro-2H-pyrido[4,3-b]indol-2-yl)methanone] | 3 to 12 |
| Cc1ccccc1-c1ccc2[nH]c3c(c2c1)CN(C(=O)c1cccc2c1ccn2C)CC3 [Formula 24, (1-methyl-1H-indol-4-yl)(8-(o-tolyl)-1,3,4,5-tetrahydro-2H-pyrido[4,3-b]indol-2-yl)methanone] | 3 to 12 |
| Cc1ccccc1-c1ccc2[nH]c3c(c2c1)CN(C(=O)c1nccs1)CC3 [Formula 25, Thiazol-2-yl(8-(o-tolyl)-1,3,4,5-tetrahydro-2H-pyrido[4,3-b]indol-2-yl)methanone] | 3 to 12 |
| Cc1ccccc1-c1ccc2[nH]c3c(c2c1)CN(C(=O)c1cccc(Cl)c1)CC3 [Formula 26, (3-chlorophenyl)(8-(o-tolyl)-1,3,4,5-tetrahydro-2H-pyrido[4,3-b]indol-2-yl)methanone] | 12 to 25 |
| Cc1ccc(-c2ccc3[nH]c4c(c3c2)CN(C(=O)c2cccnc2)CC4)cc1 [Formula 29, Pyridin-3-yl(8-(p-tolyl)-1,3,4,5-tetrahydro-2H-pyrido[4,3-b]indol-2-yl)methanone] | < 3 |
| O=C(c1cccnc1)N1CCc2[nH]c3ccc(Nc4ccc(Cl)cc4)cc3c2C1 [Formula 32, (8-((4-chlorophenyl)amino)-1,3,4,5-tetrahydro-2H-pyrido[4,3-b]indol-2-yl)(pyridin-3-yl)methanone] | < 3 |
| O=C(c1ccccc1)N1CCc2[nH]c3ccc(Nc4ccc(Cl)cc4)cc3c2C1 [Formula 33, (8-((4-chlorophenyl)amino)-1,3,4,5-tetrahydro-2H-pyrido[4,3-b]indol-2-yl)(phenyl)methanone] | 3 to 12 |

Results, then the compound that gave them:

| IC50 [µM] | SMILES |
| --- | --- |
| 3 to 12 | O=C(c1cccnc1)N1CCc2[nH]c3ccc(-c4ccccc4)cc3c2C1 [Formula 2, (8-phenyl-1,3,4,5-tetrahydro-2H-pyrido[4,3-b]indol-2-yl)(pyridin-3-yl)methanone] |
| 12 to 25 | Cc1cnc(C(=O)N2CCc3[nH]c4ccc(-c5ccccc5)cc4c3C2)cn1 [Formula 6, (5-methylpyrazin-2-yl)(8-phenyl-1,3,4,5-tetrahydro-2H-pyrido[4,3-b]indol-2-yl)methanone] |
| 3 to 12 | O=C(c1cncnc1)N1CCc2[nH]c3ccc(-c4ccccc4)cc3c2C1 [Formula 8, (8-phenyl-1,3,4,5-tetrahydro-2H-pyrido[4,3-b]indol-2-yl)(pyrimidin-5-yl)methanone] |
| 3 to 12 | O=C(c1nccs1)N1CCc2[nH]c3ccc(-c4ccccc4)cc3c2C1 [Formula 11, (8-phenyl-1,3,4,5-tetrahydro-2H-pyrido[4,3-b]indol-2-yl)(thiazol-2-yl)methanone] |
| 12 to 25 | O=C(c1ccc(C(F)(F)F)cc1)N1CCc2[nH]c3ccc(-c4ccccc4)cc3c2C1 [Formula 12, (8-phenyl-1,3,4,5-tetrahydro-2H-pyrido[4,3-b]indol-2-yl)(4-(trifluoromethyl)phenyl)methanone] |
| 3 to 12 | CCc1ccc(C(=O)N2CCc3[nH]c4ccc(-c5ccccc5)cc4c3C2)cc1 [Formula 16, (4-ethylphenyl)(8-phenyl-1,3,4,5-tetrahydro-2H-pyrido[4,3-b]indol-2-yl)methanone] |
| 3 to 12 | COc1cccc(C(=O)N2CCc3[nH]c4ccc(-c5ccccc5)cc4c3C2)c1 [Formula 18, (3-methoxyphenyl)(8-phenyl-1,3,4,5-tetrahydro-2H-pyrido[4,3-b]indol-2-yl)methanone] |
| 3 to 12 | Cc1ccccc1-c1ccc2[nH]c3c(c2c1)CN(C(=O)c1cccnc1)CC3 [Formula 20, Pyridin-3-yl(8-(o-tolyl)-1,3,4,5-tetrahydro-2H-pyrido[4,3-b]indol-2-yl)methanone] |
| < 3 | Cc1cccc(-c2ccc3[nH]c4c(c3c2)CN(C(=O)c2cccnc2)CC4)c1 [Formula 27, Pyridin-3-yl(8-(m-tolyl)-1,3,4,5-tetrahydro-2H-pyrido[4,3-b]indol-2-yl)methanone] |
| < 3 | Cc1cccc(-c2ccc3[nH]c4c(c3c2)CN(C(=O)c2ccccc2)CC4)c1 [Formula 28, Phenyl(8-(m-tolyl)-1,3,4,5-tetrahydro-2H-pyrido[4,3-b]indol-2-yl)methanone] |
| < 3 | Cc1ccc(-c2ccc3[nH]c4c(c3c2)CN(C(=O)c2ccccc2)CC4)cc1 [Formula 30, Phenyl(8-(p-tolyl)-1,3,4,5-tetrahydro-2H-pyrido[4,3-b]indol-2-yl)methanone] |
| 12 to 25 | O=C(c1cccnc1)N1CCc2[nH]c3ccc(-c4cccnc4)cc3c2C1 [Formula 31, Pyridin-3-yl(8-(pyridin-3-yl)-1,3,4,5-tetrahydro-2H-pyrido[4,3-b]indol-2-yl)methanone] |
| 3 to 12 | O=S(=O)(c1cccnc1)N1CCc2[nH]c3cc(-c4ccccc4)ccc3c2C1 [Formula 34, 7-phenyl-2-(pyridin-3-ylsulfonyl)-2,3,4,5-tetrahydro-1H-pyrido[4,3-b]indole] |
